# Reference: patent EP0906100B1, “USE OF 5-HT 1A? RECEPTOR ANTAGONISTS FOR THE TREATMENT OF URINARY INCONTINENCE” (RECORDATI S.A., priority 1996, dated 1997)
# Where two headings read alike, the source gives them in different places.
# System: cystometric parameters (bladder volume capacity, micturition pressure)
# Test: Cystometric parameters (BVC, MP) in the conscious rat
# Type: in vivo, rats
# Conditions: for BVC before treatment / MP before treatment: baseline; for BVC before treatment / MP before treatment / BVC after treatment / MP after treatment: mean±S.E.; for effect on MP (in words) / effect on BVC (in words): NAN-190 up to the highest administrable dose of 300 µg/kg; for ED50: Rattus norvegicus, read-out: approximate ED50 value, reduction of MP
# Description: Male Sprague Dawley rats (Crl: CD° BR) weighing 250-350 g were used. The animals were housed with free access to food and water and maintained on a forced 12 h alternating light-dark cycle at 22-24°C for at least one week, except during performance of the experiment.
# An approximately 10 mm long midline incision was made in the shaved and cleaned abdominal wall. The urinary bladder was gently freed from adhering tissues, emptied, and then cannulated, via an incision at the dome, with a polyethylene cannula (Portex PP30), which was permanently sutured with silk thread. The cannula was exteriorized through a subcutaneous tunnel in the retroscapular area, where it was connected with a plastic adapter to avoid the risk of removal by the animal. For intravenous (i.v.) injection of test compounds, a PE 50 polyethylene tubing filled with physiological saline was inserted into the jugular vein and exteriorized in the retroscapular area.
# Since cystometrographic parameters have been reported to be influenced by the time elapsed after catheter implantation […].
# On the day of the experiment, the rats were placed in Bollman's cages; after a stabilization period of 20 min, the free tip of the bladder catheter was connected through a T-shaped tube to a pressure transducer (Bentley T 800/Marb P 82) and to a peristaltic pump (Gilson minipuls 2) for a continuous infusion, at the constant rate of 0.1 ml/min, of saline solution into the urinary bladder. The intraluminal pressure signal during infusion was continuously recorded on a polygraph (Battaglia Rangoni KO 380 with ADC1/T amplifier). Two urodynamic parameters were evaluated: bladder volume capacity (BVC) and micturition pressure (MP). BVC (in ml) is defined as the minimum volume infused after which detrusor contraction (followed by micturition) occurs. MP (in mmHg) is defined as the maximal intravesical pressure induced by the contraction of detrusor during micturition. Basal BVC and MP values were calculated as the means of the first two recorded cystometrograms. At this point, the infusion was interrupted and the test compounds were administered. Fifteen minutes after intravenous administration, or one hour after oral drug administration, two additional cystometrograms were recorded in each animal and the mean values of the two cystometrographic parameters were calculated.
# The statistical significance of the differences in urodynamic parameter values was evaluated by Student's t test for paired data. Only changes showing a probability P<0.01 were considered to be significant.
# [1] = 100 µg/kg i.v., 15 min after injection
# [2] = 300 µg/kg i.v., 15 min after injection
# [3] = 1000 µg/kg i.v., 15 min after injection
# [4] = 1 mg/kg p.o., 1 hour after oral administration
# [5] = 2000 µg/kg i.v., 15 min after injection
# [6] = 3 mg/kg p.o., 1 hour after oral administration
# [7] = 10 mg/kg p.o., 1 hour after oral administration
# [8] = 30 µg/kg i.v., 15 min after injection
# [9] = 30 mg/kg p.o., 1 hour after oral administration
smiles,measurement,setting,value
"COc1ccccc1N1CCN(CCN(C(=O)C2CCCCC2)c2ccccn2)CC1 [Compound A, N-{2-[4-(2-methoxyphenyl)-1-piperazinyl]-ethyl}-N-(2-pyridyl)-cyclohexanecarboxamide]",BVC before treatment,100 µg/kg i.v. group,0.65 ± 0.06 mL
same,MP before treatment,100 µg/kg i.v. group,93.0±8.3 mmHg
same,BVC % change,[1],+4%
same,MP % change,[1],-10%
same,BVC after treatment,[1],0.66 ± 0.08 mL
same,MP after treatment,[1],83.8±8.7 mmHg
same,BVC before treatment,300 µg/kg i.v. group,0.47 ± 0.05 mL
same,MP before treatment,300 µg/kg i.v. group,78.7±5.8 mmHg
same,BVC % change,[2],+32%
same,MP % change,[2],-11%
same,BVC after treatment,[2],0.63 ± 0.06 mL
same,MP after treatment,[2],70.0±4.1 mmHg
same,BVC before treatment,1000 µg/kg i.v. group,0.64 ± 0.05 mL
same,MP before treatment,1000 µg/kg i.v. group,104.6±6.4 mmHg
same,BVC % change,[3],+29%
same,MP % change,[3],-13%
same,BVC after treatment,[3],0.83 ± 0.07 mL
same,MP after treatment,[3],91.0±6.3 mmHg
same,BVC before treatment,1 mg/kg p.o. group,0.52 ± 0.07 mL
same,MP before treatment,1 mg/kg p.o. group,96.0±8.4 mmHg
same,MP % change,[4],-2%
same,BVC after treatment,[4],0.60 ± 0.08 mL
same,MP after treatment,[4],93.7±7.2 mmHg
same,BVC before treatment,2000 µg/kg i.v. group,0.48 ± 0.04 mL
same,MP before treatment,2000 µg/kg i.v. group,101.8±10.9 mmHg
same,BVC % change,[5],+32%
same,MP % change,[5],-20%
same,BVC after treatment,[5],0.63 ± 0.05 mL
same,MP after treatment,[5],81.5±14.1 mmHg
same,BVC before treatment,3 mg/kg p.o. group,0.67 ± 0.07 mL
same,MP before treatment,3 mg/kg p.o. group,112.5±6.5 mmHg
same,BVC % change,[6],+35%
same,MP % change,[6],-4%
same,BVC after treatment,[6],0.91 ± 0.10 mL
same,MP after treatment,[6],107.6±9.2 mmHg
same,BVC before treatment,10 mg/kg p.o. group,0.54 ± 0.06 mL
same,MP before treatment,10 mg/kg p.o. group,90.2±7.1 mmHg
same,BVC % change,[7],+37%
same,MP % change,[7],-4%
same,BVC after treatment,[7],0.73 ± 0.10 mL
same,MP after treatment,[7],86.6±7.6 mmHg
same,effect on MP (in words),"conscious rats, i.v.",inactive
"COc1ccccc1N1CCN(CCCCN2C(=O)c3ccccc3C2=O)CC1 [NAN-190, 1-(2-methoxyphenyl)-4-[4-(2-phthalimido)-butyl]-piperazine]",BVC before treatment,30 µg/kg i.v. group,0.74 ± 0.09 mL
same,MP before treatment,30 µg/kg i.v. group,99.4±10.1 mmHg
same,BVC % change,[8],+6%
same,MP % change,[8],+5%
same,BVC after treatment,[8],0.78 ± 0.10 mL
same,MP after treatment,[8],104.6±9.7 mmHg
same,BVC before treatment,100 µg/kg i.v. group,0.68 ± 0.10 mL
same,MP before treatment,100 µg/kg i.v. group,93.8±11.5 mmHg
same,BVC % change,[1],+12%
same,MP % change,[1],-12%
same,BVC after treatment,[1],0.76 ± 0.10 mL
same,MP after treatment,[1],82.5±9.2 mmHg
same,BVC before treatment,300 µg/kg i.v. group,0.62 ± 0.06 mL
same,MP before treatment,300 µg/kg i.v. group,86.6±10.3 mmHg
same,BVC % change,[2],-1%
same,MP % change,[2],+2%
same,BVC after treatment,[2],0.61 ± 0.06 mL
same,MP after treatment,[2],88.4±11.8 mmHg
same,BVC before treatment,10 mg/kg p.o. group,0.54 ± 0.08 mL
same,MP before treatment,10 mg/kg p.o. group,106.1±10.4 mmHg
same,BVC % change,[7],-14%
same,MP % change,[7],-14%
same,BVC after treatment,[7],0.46 ± 0.07 mL
same,MP after treatment,[7],90.8±12.5 mmHg
same,BVC before treatment,30 mg/kg p.o. group,0.71 ± 0.09 mL
same,MP before treatment,30 mg/kg p.o. group,105.1±10.5 mmHg
same,BVC % change,[9],-15%
same,MP % change,[9],-9%
same,BVC after treatment,[9],0.60 ± 0.09 mL
same,MP after treatment,[9],95.8±15.3 mmHg
same,effect on BVC (in words),"conscious rats, i.v.",devoid of significant effects
same,effect on MP (in words),"conscious rats, i.v.",devoid of significant effects
same,activity on cystometric parameters after oral administration (in words),"conscious rats, oral, doses up to 30 mg/kg",inactive
"CCN(CC)CC#CCOC(=O)C(O)(c1ccccc1)C1CCCCC1 (stereo not drawn) [Oxybutynin, oxybutynin]",BVC before treatment,100 µg/kg i.v. group,0.82 ± 0.15 mL
same,MP before treatment,100 µg/kg i.v. group,95.2±9.2 mmHg
same,BVC % change,[1],+9%
same,MP % change,[1],-19%
same,BVC after treatment,[1],0.89 ± 0.18 mL
same,MP after treatment,[1],77.4±10.3 mmHg
same,BVC before treatment,300 µg/kg i.v. group,0.83 ± 0.13 mL
same,MP before treatment,300 µg/kg i.v. group,82.3±8.7 mmHg
same,BVC % change,[2],0%
same,MP % change,[2],-39%
same,BVC after treatment,[2],0.83 ± 0.12 mL
same,MP after treatment,[2],50.5±6.3 mmHg
same,BVC before treatment,1000 µg/kg i.v. group,0.94 ± 0.19 mL
same,MP before treatment,1000 µg/kg i.v. group,110.9±10.2 mmHg
same,BVC % change,[3],+7%
same,MP % change,[3],-73%
same,BVC after treatment,[3],1.00 ± 0.18 mL
same,MP after treatment,[3],29.6±5.6 mmHg
same,BVC before treatment,1 mg/kg p.o. group,0.56 ± 0.11 mL
same,MP before treatment,1 mg/kg p.o. group,92.1±13.3 mmHg
same,BVC % change,[4],+31%
same,MP % change,[4],-16%
same,BVC after treatment,[4],0.74 ± 0.11 mL
same,MP after treatment,[4],77.3±9.8 mmHg
same,BVC before treatment,3 mg/kg p.o. group,0.54 ± 0.07 mL
same,MP before treatment,3 mg/kg p.o. group,82.1±5.1 mmHg
same,BVC % change,[6],+18%
same,MP % change,[6],-49%
same,BVC after treatment,[6],0.63 ± 0.13 mL
same,MP after treatment,[6],42.1±5.1 mmHg
same,BVC before treatment,10 mg/kg p.o. group,0.55 ± 0.08 mL
same,MP before treatment,10 mg/kg p.o. group,98.3±9.0 mmHg
same,BVC % change,[7],+27%
same,MP % change,[7],-68%
same,BVC after treatment,[7],0.70 ± 0.11 mL
same,MP after treatment,[7],31.8±3.9 mmHg
same,ED50,"iv, conscious rats, i.v.",~0.4 mg/kg
same,ED50,"conscious rats, oral administration",~4 mg/kg
same,effect on BVC (in words),"conscious rats, i.v.",inactive
